From US9364459B2, “3-(indolyl)- or 3-(azaindolyl)- 4-arylmaleimide derivatives for use in the treatment of colon and gastric adenocarcinoma” (Johannes Gutenberg-Universität Mainz, priority 2009, dated 2016)

How the values were obtained:
[1] = target: VEGFR-2 (Homo sapiens (Human), UniProt P35968); assay: VEGFR-2 kinase inhibition assay (Millipore IC50Profiler); format: biochemical; details: for VEGFR-2 IC50 values, in words: Table 2
Description: (§1) GSK-3β, VEGFR-2, FLT-3 Kinase Inhibition Assays
(§2) Detailed protocols can be found at: www.millipore.com/drugdiscovery/dd3/assayprotocols.

[2] = target: FLT-3 (Homo sapiens (Human), UniProt P36888); assay: FLT-3 kinase inhibition assay (Millipore IC50Profiler); format: biochemical; details: for FLT-3 inhibition, in words: Table 2
Method: as §1
The effect of test compounds on the activity of the protein kinases GSK-3β, VEGFR-2 and FLT-3 was evaluated based on half maximal inhibitory concentration (IC50) values determined by Millipore UK Ltd; Gemini Crescent; Dundee Technology Park; Dundee DD2 1SW; UK (IC50Profiler). Detailed protocols can be found at: www.millipore.com/drugdiscovery/dd3/assayprotocols.

[3] = target: GSK-3β (Homo sapiens (Human), UniProt P49841); assay: GSK-3β kinase inhibition assay (Millipore IC50Profiler); format: biochemical; details: for GSK-3β IC50 values, in words: Table 2
Description: as §1, §2

[4] = system: chick embryo microvessel formation; assay: Quantitative chick embryo in vivo assay of antiangiogenic activity; details: Gallus gallus; 26 nM drug concentration/pellet; 24 hours incubation; read-out: Inhibition of microvessel area
Method: Evaluation of Antiangiogenic Activity in a Quantitative Chick Embryo In Vivo Assay
The inhibition of angiogenesis (new blood vessel formation) was measured as described in WO2006/061212.

[5] = system: HUVEC; assay: Nicoletti apoptosis assay (sub-G1 fraction) in HUVEC; format: cell-based, human; details: 4 days, untreated 15.4 ± 1.5%
Method: (§3) Nicoletti Apoptosis Assay by Cell Cycle Analysis
(§4) Cancer cells were transferred to 12-well flat-bottomed plates. […] Subsequently, cells were incubated in 1 ml medium containing various concentrations of test compounds at 37° C. with 5% CO2. After incubation the cells were washed with PBS, trypsinized, pelleted and mixed with PI buffer (containing 0.1% sodium citrate, 0.1% triton X-100, […] propidium iodide (PI)) and incubated for 1 hour at 4° C. Cell cycle sub-G1 fraction analysis was performed as described previously (Nicoletti, I. et al. (1991) J. Immunol. Methods 139, 271-279) using a flow cytometer (BD FACS Calibur™, BD Biosciences, Heidelberg, Germany). Each experiment was done in triplicate.
The same analysis was performed with HUVEC cells. 1.5×10^4 cells were plated into each well and treated with test compounds for 4 days.
Human Umbilical Vein Endothelial Cells (HUVEC) known for mitogenic specifity for VEGF were obtained from the Department of Pathology, University Hospital of Mainz, Germany. The cells were cultured in M199 supplemented with 20% FCS, 1% Pen/Strep, 0.34% GlutaMAX-I, 25 μg/ml Endothelial Cell Growth Supplement (BD Biosciences), 25 μg/ml Heparin sodium (179 USP units/mg; Sigma, Germany) and were maintained at 37° C. and 5% CO2.

[6] = system: HT-29; assay: Nicoletti apoptosis assay in HT-29 cells; format: cell-based, human; details: for Sub-G1 Fraction: HT-29; for Activity in combination with irinotecan relative to compound A, in words: HT-29 cells
Method: as §3, §4

[7] = system: HT-29 human colon adenocarcinoma cells; assay: MTT viability assay in HT-29 cells; details: HT-29, 72 h, read-out: Viability of HT-29 cells as determined by MTT assay
Method: Evaluation of Effect on Viability (MTT Assay)
The antiproliferative activity of test compounds was determined by the 3-(4,5-dimethylthiazol-2-yl)-2,5-diphenyltetrazolium bromide (MTT) assay as described previously (Mosmann, T. et al. (1983) J. Immunol. Methods 65, 55-63). Cells in the exponential growth phase were transferred to 96-well flat-bottom plates. 10,000 viable cells contained in 200 μl cell suspension were plated into each well and incubated over night. Cells were then exposed to various concentrations of test compounds (100 μl/well) for 3 days at 37° C. with 5% CO2. Subsequently, 10 μl/well MTT stock solution (5 mg/ml; Biomol, Germany) was added and the cells were incubated at 37° C. with 5% CO2 for 4 hours. 100 μl solubilization solution (10% SDS in 0.01 M HCl) was added and the cells were incubated at 37° C. with 5% CO2 over night. Plates were read on an ELISA-Reader ELX 800 (BIO-TEK Software KC 4) at 562 nm absorbance. Each experiment was done in triplicate.
HCT-116, HT-29 and SW480 cells were cultured in RPMI1640 supplemented with 10% FCS. […] All cells were maintained at 37° C. and 5% CO2.

[8] = Table 8, 7.9 μM test compound alone, drug-free control 3.4 ± 0.9%
[9] = Table 8, 7.9 μM test compound plus 1.18 μM irinotecan

Chain of FLT-3 (P36888 27-993): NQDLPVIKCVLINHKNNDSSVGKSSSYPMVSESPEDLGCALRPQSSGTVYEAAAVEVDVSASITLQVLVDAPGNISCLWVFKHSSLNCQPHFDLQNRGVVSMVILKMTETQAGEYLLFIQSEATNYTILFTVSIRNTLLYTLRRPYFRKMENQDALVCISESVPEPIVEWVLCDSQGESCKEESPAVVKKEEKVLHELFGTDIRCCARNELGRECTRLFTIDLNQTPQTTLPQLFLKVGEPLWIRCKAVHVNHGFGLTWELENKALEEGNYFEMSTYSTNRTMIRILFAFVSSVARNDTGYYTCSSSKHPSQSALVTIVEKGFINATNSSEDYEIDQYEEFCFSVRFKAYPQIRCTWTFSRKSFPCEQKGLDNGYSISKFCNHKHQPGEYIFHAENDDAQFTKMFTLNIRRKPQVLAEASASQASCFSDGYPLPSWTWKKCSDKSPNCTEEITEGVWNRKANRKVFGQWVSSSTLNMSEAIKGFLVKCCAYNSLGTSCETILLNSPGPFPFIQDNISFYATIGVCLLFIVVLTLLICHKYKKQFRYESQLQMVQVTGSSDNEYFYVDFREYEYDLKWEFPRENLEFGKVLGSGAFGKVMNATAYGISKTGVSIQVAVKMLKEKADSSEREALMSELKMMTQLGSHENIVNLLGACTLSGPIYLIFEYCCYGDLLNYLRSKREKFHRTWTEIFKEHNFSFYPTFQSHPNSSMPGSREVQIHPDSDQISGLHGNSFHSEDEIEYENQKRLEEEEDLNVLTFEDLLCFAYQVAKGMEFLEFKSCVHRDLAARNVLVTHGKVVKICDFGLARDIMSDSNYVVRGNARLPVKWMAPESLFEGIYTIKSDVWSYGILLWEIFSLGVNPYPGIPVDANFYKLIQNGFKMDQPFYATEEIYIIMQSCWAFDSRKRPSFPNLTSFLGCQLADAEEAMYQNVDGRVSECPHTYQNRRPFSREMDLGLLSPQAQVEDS
Chain of GSK-3β (P49841 whole entry): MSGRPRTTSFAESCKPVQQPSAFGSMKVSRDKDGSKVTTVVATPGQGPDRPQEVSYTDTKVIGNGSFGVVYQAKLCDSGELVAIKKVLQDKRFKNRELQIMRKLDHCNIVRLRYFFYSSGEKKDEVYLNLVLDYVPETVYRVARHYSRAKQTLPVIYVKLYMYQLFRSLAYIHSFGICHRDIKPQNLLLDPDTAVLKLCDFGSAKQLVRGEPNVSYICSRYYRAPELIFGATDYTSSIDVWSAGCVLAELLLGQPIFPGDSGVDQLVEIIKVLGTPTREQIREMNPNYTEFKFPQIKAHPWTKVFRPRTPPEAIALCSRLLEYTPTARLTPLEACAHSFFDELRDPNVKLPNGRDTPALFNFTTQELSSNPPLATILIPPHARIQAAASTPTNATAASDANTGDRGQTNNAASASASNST
Chain of VEGFR-2 (P35968 20-1356): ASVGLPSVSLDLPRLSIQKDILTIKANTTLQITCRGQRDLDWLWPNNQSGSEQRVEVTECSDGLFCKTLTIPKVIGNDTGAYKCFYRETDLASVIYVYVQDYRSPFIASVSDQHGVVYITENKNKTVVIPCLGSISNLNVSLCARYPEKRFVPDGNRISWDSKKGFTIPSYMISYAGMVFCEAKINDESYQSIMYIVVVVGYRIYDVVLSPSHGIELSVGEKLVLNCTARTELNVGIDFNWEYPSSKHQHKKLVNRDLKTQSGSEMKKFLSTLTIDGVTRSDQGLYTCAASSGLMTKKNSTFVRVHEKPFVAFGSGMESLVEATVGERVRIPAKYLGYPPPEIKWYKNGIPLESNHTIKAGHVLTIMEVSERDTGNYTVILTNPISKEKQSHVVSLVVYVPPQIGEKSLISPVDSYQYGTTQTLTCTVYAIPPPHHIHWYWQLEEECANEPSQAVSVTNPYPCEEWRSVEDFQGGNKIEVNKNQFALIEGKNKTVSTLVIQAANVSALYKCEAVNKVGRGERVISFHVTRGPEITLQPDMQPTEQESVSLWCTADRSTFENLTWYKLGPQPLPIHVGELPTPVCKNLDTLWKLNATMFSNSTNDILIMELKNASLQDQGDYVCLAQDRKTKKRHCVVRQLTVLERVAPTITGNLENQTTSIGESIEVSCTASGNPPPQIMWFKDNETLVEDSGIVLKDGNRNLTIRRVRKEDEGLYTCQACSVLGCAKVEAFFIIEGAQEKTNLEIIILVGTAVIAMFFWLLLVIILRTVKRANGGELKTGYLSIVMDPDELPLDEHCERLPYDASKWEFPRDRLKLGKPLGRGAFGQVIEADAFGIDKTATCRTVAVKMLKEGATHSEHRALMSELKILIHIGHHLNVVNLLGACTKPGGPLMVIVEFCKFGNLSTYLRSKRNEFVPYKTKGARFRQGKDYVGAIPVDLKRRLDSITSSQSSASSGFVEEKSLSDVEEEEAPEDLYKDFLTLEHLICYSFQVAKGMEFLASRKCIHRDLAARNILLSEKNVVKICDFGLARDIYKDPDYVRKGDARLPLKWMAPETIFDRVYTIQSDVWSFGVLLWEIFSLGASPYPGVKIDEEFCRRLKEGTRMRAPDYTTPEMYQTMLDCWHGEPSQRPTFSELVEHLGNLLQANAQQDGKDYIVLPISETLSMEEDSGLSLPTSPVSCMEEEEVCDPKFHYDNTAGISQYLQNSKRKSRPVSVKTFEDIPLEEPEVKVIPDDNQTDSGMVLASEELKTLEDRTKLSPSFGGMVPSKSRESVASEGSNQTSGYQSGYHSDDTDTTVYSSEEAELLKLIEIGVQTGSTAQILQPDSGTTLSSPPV

Row | SMILES | IC50 [1] | IC50 [2] | IC50 [3] | Sub-G1 Fraction [6, 8] | Sub-G1 Fraction [6, 9] | viability at 2.6 µM [7] | viability at 7.9 µM [7] | viability at 26 µM [7] | viability at 52 µM [7] | GSK-3β IC50 values, in words [3] | melting point | further results
1 | COc1cc(C2=C(c3c[nH]c4ncccc34)C(=O)NC2=O)cc(OC)c1OC [B, 3-(7-Azaindol-3-yl)-4-(3,4,5-trimethoxyphenyl)-maleinimid] | 0.037 µM | 0.132 µM | > 10 µM | 2.32 ± 1.16% | 22.36 ± 2.80% | 65 ± 2.16% | 45.5 ± 3.71% | 38.5 ± 0.99% | 38.1 ± 5.43% |  |  | VEGFR-2 IC50 values, in words [1]: low nanomolar range; FLT-3 inhibition, in words [2]: most significantly inhibited; inhibition at 0.026 µM [4]: 61%; Sub-G1 Fraction ([5]; 0.79 μM): 26.7 ± 1.9%; Sub-G1 Fraction ([5]; 2.6 μM): 49.2 ± 2.2%; Sub-G1 Fraction ([5]; 7.9 μM): 69.5 ± 3.4%
2 | COc1cc(C2=C(c3c[nH]c4cnccc34)C(=O)NC2=O)cc(OC)c1OC [Compound C, 3-(6-Azaindol-3-yl)-4-(3,4,5-trimethoxyphenyl)-maleinimid] | 0.048 µM | 1.9 µM | < 0.01 µM | 79.9 ± 4.13% | 75.69 ± 1.77% | 30.4 ± 1.52% | 25.8 ± 3.52% | 12.7 ± 2.6% | 4.22 ± 0.44% | low nanomolar range |  | VEGFR-2 IC50 values, in words [1]: low nanomolar range; inhibition at 0.026 µM [4]: 32%; Sub-G1 Fraction ([5]; 0.79 μM): 48.0 ± 2.3%; Sub-G1 Fraction ([5]; 2.6 μM): 66.3 ± 1.0%
3 | COc1cc(C2=C(c3c[nH]c4ccncc34)C(=O)NC2=O)cc(OC)c1OC [Compound D, 3-(5-Azaindol-3-yl)-4-(3,4,5-trimethoxyphenyl)-maleinimid] | 0.023 µM | 6.27 µM | 0.05 µM | 21.51 ± 2.89% | 47.53 ± 0.47% | 62.21 ± 0.33% | 64.2 ± 0.76% | 39.6 ± 1.9% | 19.2 ± 0.26% | low nanomolar range |  | VEGFR-2 IC50 values, in words [1]: low nanomolar range; inhibition at 0.026 µM [4]: 69%; Sub-G1 Fraction ([5]; 0.79 μM): 25.7 ± 1.2%; Sub-G1 Fraction ([5]; 2.6 μM): 70.2 ± 2.7%; Sub-G1 Fraction ([5]; 7.9 μM): 79.9 ± 3.8%
4 | COc1cc(C2=C(c3c[nH]c4cccnc34)C(=O)NC2=O)cc(OC)c1OC [E, 3-(4-Azaindol-3-yl)-4-(3,4,5-trimethoxyphenyl)-1H-pyrrol-2,5-dione] | 0.373 µM | 1.52 µM | 0.215 µM | 4.22 ± 0.74% | 25.71 ± 1.97% | 114 ± 5.2% | 98.31 ± 0.9% | 92.6 ± 2.8% | 65.8 ± 1.5% |  | 274 to 275 °C | 
5 | COc1cc(C2=C(c3cn(CCN)c4ccccc34)C(=O)NC2=O)cc(OC)c1OC.Cl [F, 3-(1-[2-Ammonioethyl]-1H-indol-3-yl)-4-(3,4,5-trimethoxyphenyl)-maleinimide-chloride] | 1.89 µM | 0.227 µM | 0.195 µM | 5.69 ± 0.69% | 51.00 ± 0.56% |  |  |  |  | low nanomolar range |  | FLT-3 inhibition, in words [2]: most significantly inhibited
6 | COc1cc(C2=C(c3cn(CCCN)c4ccccc34)C(=O)NC2=O)cc(OC)c1OC.Cl [G, 3-(1-[3-Ammoniopropyl]-1H-indol-3-yl)-4-(3,4,5-trimethoxyphenyl)-maleinimide-chloride] | 1.5 µM | > 1 µM | 0.129 µM | 4.01 ± 0.66% | 56.01 ± 0.29% |  |  |  |  | low nanomolar range |  | 
7 | COc1cc(C2=C(c3cn(CCO)c4ccccc34)C(=O)NC2=O)cc(OC)c1OC [H, 3-(1-[2-Hydroxyethyl]-1H-indol-3-yl)-4-(3,4,5-trimethoxyphenyl)-maleinimide] |  | 0.554 µM |  | 8.08 ± 0.77% | 71.28 ± 3.51% |  |  |  |  | low nanomolar range | 195 to 196 °C | Activity in combination with irinotecan relative to compound A, in words [6]: even more potent than compound A
8 | COc1cc(C2=C(c3cn(CCCO)c4ccccc34)C(=O)NC2=O)cc(OC)c1OC [I, 3-(1-[3-Hydroxypropyl]-1H-indol-3-yl)-4-(3,4,5-trimethoxyphenyl)-maleinimide] |  | 0.556 µM |  | 11.25 ± 0.11% | 65.71 ± 0.04% |  |  |  |  | low nanomolar range | 160 °C | 
9 | COc1cc(C2=C(c3cn(CCN(C)C)c4ccccc34)C(=O)NC2=O)cc(OC)c1OC [J, 3-{1-[2-(Dimethylamino)ethyl]-1H-indol-3-yl}-4-(3,4,5-trimethoxyphenyl)-maleinimide] | 1.3 µM | > 1 µM | 3.58 µM | 2.50 ± 1.73% | 43.48 ± 1.87% |  |  |  |  |  | 184 to 185 °C | 
10 | COc1cc(C2=C(c3cn(CCCN(C)C)c4ccccc34)C(=O)NC2=O)cc(OC)c1OC [K, 3-{1-[3-(Dimethylamino)propyl]-1H-indol-3-yl}-4-(3,4,5-trimethoxyphenyl) maleinimide] | > 10 µM | 1.53 µM | > 1 µM | 3.17 ± 0.86% | 50.28 ± 1.31% |  |  |  |  |  |  | 
11 | COc1cc(C2=C(c3cn(CCN4CCCCC4)c4ccccc34)C(=O)NC2=O)cc(OC)c1OC [L, 3-{1-[2-(piperidin-1-yl)ethyl]-1H-indol-3-yl}-4-(3,4,5-trimethoxyphenyl)-maleinimide] | 1.21 µM | 1.24 µM | > 1 µM | 4.64 ± 0.75% | 62.32 ± 1.63% |  |  |  |  |  | 179 to 180 °C | Activity in combination with irinotecan relative to compound A, in words [6]: even more potent than compound A
12 | COc1cc(C2=C(c3cn(CCN4CCOCC4)c4ccccc34)C(=O)NC2=O)cc(OC)c1OC [M, 3-{1-(2-morpholinoethyl)-1H-indol-3-yl}-4-(3,4,5-trimethoxyphenyl)-maleinimide] | 9.2 µM | > 10 µM | 0.657 µM | 10.01 ± 2.16% | 56.81 ± 3.96% |  |  |  |  |  | 238 to 239 °C | 
13 | COc1cc(C2=C(c3cn(CCCN4CCN(C)CC4)c4ccccc34)C(=O)NC2=O)cc(OC)c1OC [N, 3-{1-[3-(4-Methylhexahydro-1-pyrazindiiumyl)propyl]-1H-indol-3-yl}-4-(3,4,5-trimethoxyphenyl)-maleinimide dichloride] | 2.83 µM | > 10 µM | 3.24 µM | 3.01 ± 0.40% | 49.49 ± 1.82% |  |  |  |  |  |  | 
14 | COc1cc(C2=C(c3c[nH]c4ccc(Br)cc34)C(=O)NC2=O)cc(OC)c1OC [P, 3-(5-Bromo-1H-indol-3-yl)-4-(3,4,5-trimethoxyphenyl)-maleinimide] |  |  |  | 1.81 ± 0.36% | 55.00 ± 0.33% | 37.83 ± 0.19% | 20.6 ± 0.35% | 7.07 ± 1.37% | 8.68 ± 0.37% |  | 259 to 262 °C | inhibition at 0.026 µM [4]: 35%; Sub-G1 Fraction ([5]; 0.79 μM): 24.0 ± 1.9%; Sub-G1 Fraction ([5]; 2.6 μM): 31.6 ± 2.0%; Sub-G1 Fraction ([5]; 7.9 μM): 54.4 ± 3.2%; Activity in combination with irinotecan relative to compound A, in words [6]: at least comparable with compound A
15 | CCN(CC)CCNC(=O)c1c(C)[nH]c(/C=C2\C(=O)Nc3ccc(F)cc32)c1C [sunitinib, reference compound] |  |  |  |  |  |  |  |  |  |  |  | Sub-G1 Fraction ([6]; Table 9, 5 μM sunitinib plus 1.18 μM Irinotecan, 7 days): 24.5 ± 1.2%; Sub-G1 Fraction ([6]; Table 9, single-agent treatment, 5 μM sunitinib, 7 days): 11.8 ± 1.0%
16 | COc1cc2c(Nc3ccc(Br)cc3F)ncnc2cc1OCC1CCN(C)CC1 [vandetanib, reference compound] |  |  |  |  |  |  |  |  |  |  |  | Sub-G1 Fraction ([6]; Table 9, 10 μM vandetanib plus 1.18 μM Irinotecan, 7 days): 35.2 ± 0.4%; Sub-G1 Fraction ([6]; Table 9, single-agent treatment, 10 μM vandetanib, 7 days): 11.1 ± 1.9%
